Source: paper PMC11992225, “Antibacterial compounds against non-growing and intracellular bacteria” (npj Antimicrobials and Resistance, 2025)
Converted amounts (≈) assume the structure as drawn. Where two headings read alike, the source gives them in different places.

Experiments:
S. flexneri 5a M90T = assay: MIC in tryptic soy broth, S. flexneri; assay type: cell-based, Shigella flexneri; settings: for MIC (μM) TSB: S. flexneri, extracellular bacteria in TSB
Summary of the method: (§1)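 Broth microdilution was used throughout. UPEC, P. aeruginosa and S. aureus were tested in CA-MHB buffered with 40 mM HEPES (pH 7.4); UPEC was additionally tested in LPM with 30 mM MES (pH 5.5). S. flexneri was grown in TSB. All determinations were run in triplicate.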

E. coli CFT073 (UPEC) = assay: MIC, standard microdilution assay, growing UPEC; assay type: cell-based, Escherichia coli; settings: E. coli
Summary of the method: as §1

[1] = test system: intracellular S. flexneri 5a M90T in TC7 cells; assay: microbe, parasite or virus in culture; assay type: cell-based, Shigella flexneri
Excerpt: Nonproliferating bacterial pathogens frequently inhabit intracellular environments, but establishing relevant infection models for high-throughput testing is challenging. Therefore, we firstly tested ability of the hit compounds to cross the eukaryotic cytoplasmic membrane barrier and inhibit growth of S. flexneri within the cytoplasm of the TC7 human colon adenocarcinoma cell line[59]. To this end, we developed a new, fluorescence-based method that enables real-time monitoring of growth of intracellular Shigella. We used S. flexneri 5a M90T strain producing the AfaE adhesin that enhances bacterial adhesion to epithelial cells and allows synchronization of invasion. The strain was further modified to constitutively express super-folder GFP (sfGFP), which enables monitoring bacterial growth by fluorescence measurement. The epithelial cells were grown to confluence and infected with bacteria at an MOI (multiplicity of infection) of 50. […] Following bacterial adhesion and invasion, the cells were incubated with varying concentrations of the hit compounds and intracellular bacterial growth was tracked by measuring green fluorescence.
The cells were split using trypsin, seeded in 96-well plates for infection, and grown to confluence, corresponding to approximately 40,000 cells per well.
A single colony of S. flexneri was inoculated into TSB supplemented with 50 μg/ml spectinomycin and incubated overnight at 37°C with agitation. The overnight culture was diluted 1:200 in fresh TSB, and the bacteria were grown at 37 °C until the OD600 reached 0.3–0.4, corresponding to approximately 2 × 10^7 CFU/ml. Bacteria were pelleted by centrifugation, washed twice with sterile PBS, and resuspended in infection solution (serum-free DMEM supplemented with 20 mM HEPES, pH 7.4). Just prior to infection, the medium was withdrawn, and the cells were washed twice with sterile PBS. The bacterial inoculum (MOI 50, 2 × 10^7 CFU/ml) was added to all wells except the no-infection control. The plates were incubated at room temperature for 15 min to allow bacterial adhesion, followed by a 1 h incubation at 37 °C with 5% CO2 to facilitate bacterial invasion.
Twofold serial dilutions of the drugs were prepared in infection solution containing 50 μg/ml gentamicin in a 96-well plate. After the invasion period, the bacterial inoculum was removed, and the serial dilutions of the drugs were added to the wells, except for the no-drug control. […] […] The experiments were performed in triplicates on separate days.
Statistical significance of the drug effects was assessed using a one-way ANOVA followed by Dunnett’s test, comparing each treatment to the drug-free control. Statistical significance of the differences in chemical characteristics between the hit compounds and the Prestwick library was assessed using a Mann–Whitney test. Statistical significance was set at P ≤ 0.05. A five-parameter logistic equation was used for asymmetric sigmoidal curve fitting and for EC50 and IC50 determination. The Venn diagram in Fig. 1F was prepared using BioVenn web application. Characteristics of the chemical and physical properties of Prestwick library compounds were obtained from Supplementary Table S1 from reference. Characteristics of the hit compounds not included in the Prestwick library were retrieved from the PubChem database.

S. aureus DSM2569 = assay: MIC, standard microdilution assay, growing S. aureus; assay type: cell-based, Staphylococcus aureus; settings: S. aureus, CA-MHB pH 7.4, read-out: MIC (μM) CA-MHB
Summary of the method: as §1

[2] = test system: non-growing P. aeruginosa DSM1117; assay: Dilution-regrowth assay (OD600, start-growth-time) on stationary-phase P. aeruginosa; assay type: cell-based, Pseudomonas aeruginosa; settings: P. aeruginosa; for Regrowth, OD600 at 6h or 8h after dilution into drug-free medium: average
Description: To determine the spectrum of activity of the compounds that were effective against non-growing UPEC, we further assessed their efficacy against the well-characterized Gram-negative and Gram-positive reference strains P. aeruginosa DSM1117 and S. aureus DSM2569, respectively. The cultures were grown and treated for 24 h in 1:4 CA-MHB (pH 7.4). […].
For better characterization of the compounds causing the strongest regrowth delay, we performed the regrowth step of the dilution-regrowth experiments on a plate reader, measuring the OD600 at 20-min intervals for over 20 h instead of using an endpoint measurement. This approach allowed us to capture the time when cultures reached a threshold optical density (start-growth-time, SGT[15]).
Overnight cultures of UPEC, P. aeruginosa and S. aureus were grown in test tubes containing 3 ml of LB broth (~16 h), then diluted 1:100 into either 1:4 diluted CA-MHB medium buffered with 40 mM HEPES (pH 7.4) or, in case of UPEC, into LPM medium[25] supplemented with 49 µM MgCl2 and buffered with 30 mM MES (pH 5.5). The cultures were incubated for 24 h in non-baffled Erlenmeyer flasks at 37 °C with shaking at 200 rpm.
For P. aeruginosa and S. aureus, dose–response analysis was conducted in 96-well plates with a 200 μl assay volume, following the procedure used for screening assay validation experiments. Aliquots of the 39 compounds active against non-growing UPEC were obtained from SelleckChem and MedChem Express. Stock solutions were prepared and stored according to the manufacturers’ instructions, then diluted in 10% DMSO before use. Cultures were incubated for 24 h in 1:4 diluted CA-MHB medium under the same conditions used for UPEC cultivation. In preliminary experiments, each compound was tested at a concentration of 20 μM in the dilution-regrowth assay with 4 technical replicates. Regrowth was monitored using a microplate reader at 37 °C with continuous shaking, and OD600 was recorded every 20 min. The time at which OD600 exceeded the threshold of 0.12 was recorded as the Start_Growth-Time.
The statistical analysis of all data, as well as EC50 and IC50 determination, was conducted using GraphPad Prism 10.2.3. Statistical significance of the drug effects was assessed using a one-way ANOVA followed by Dunnett’s test, comparing each treatment to the drug-free control. Statistical significance of the differences in chemical characteristics between the hit compounds and the Prestwick library was assessed using a Mann–Whitney test. Statistical significance was set at P ≤ 0.05. A five-parameter logistic equation was used for asymmetric sigmoidal curve fitting and for EC50 and IC50 determination. The Venn diagram in Fig. 1F was prepared using BioVenn web application. Characteristics of the chemical and physical properties of Prestwick library compounds were obtained from Supplementary Table S1 from reference. Characteristics of the hit compounds not included in the Prestwick library were retrieved from the PubChem database.

[3] = pH 7.4, CA-MHB, read-out: MIC (μM) CA-MHB
[4] = TC7 cells infected with GFP-expressing S. flexneri, 14 h treatment
[5] = Escherichia coli, pH 7.4, CA-MHB, read-out: MIC (μM) CA-MHB

Molecule | MIC (μM) TSB (S. flexneri 5a M90T) | MIC (E. coli CFT073 (UPEC); LPM pH 5.5, read-out: MIC) | MIC (E. coli CFT073 (UPEC); [3]) | Fluorescence intensity (RFU), Mean, 2 x MIC [1, 4] | Fluorescence intensity (RFU), Mean, 4 x MIC [1, 4] | Fluorescence intensity (RFU), Mean, 8 x MIC [1, 4] | Fluorescence intensity (RFU), Mean, 16 x MIC [1, 4] | Fluorescence intensity (RFU), Mean, 32 x MIC [1, 4] | Fluorescence intensity (RFU), Mean, MIC [1, 4] | MIC (S. aureus DSM2569) | MIC (E. coli CFT073 (UPEC); [5]) | MIC (S. aureus DSM2569; Staphylococcus aureus, DSM2569) | further results
N#Cc1c(N2C[C@@H]3NCCO[C@H]3C2)c(F)cc2c(=O)c(C(=O)O)cn(C3CC3)c12 [Finafloxacin] | 0.125 µM (≈ 0.0498 µg/mL) | 0.007812 µM (≈ 0.00311 µg/mL) | 0.25 µM (≈ 0.0996 µg/mL) | 5014.06 RFU | 3886.5 RFU | 3157.03 RFU | 2833.69 RFU | 2227.19 RFU | 6107.08 RFU | 0.5 µM (≈ 0.199 µg/mL) |  |  | IC50 ([1]; intracellular S. flexneri in TC7 cells, GFP fluorescence after 14 h treatment, read-out: IC50): 202 nM
CCCCCCCCN=c1ccn(CCCCCCCCCCn2ccc(=NCCCCCCCC)cc2)cc1 [Octenidine] |  |  |  |  |  |  |  |  |  |  | 1 µM (≈ 0.551 µg/mL) | 1 µM (≈ 0.551 µg/mL) | Regrowth, OD600 at 6h or 8h after dilution into drug-free medium ([2]; concentration 0.1): 0.666; Regrowth, OD600 at 6h or 8h after dilution into drug-free medium ([2]; concentration 0.5): 0.602; Regrowth, OD600 at 6h or 8h after dilution into drug-free medium ([2]; concentration 2.5): 0.656; Regrowth, OD600 at 6h or 8h after dilution into drug-free medium (average) ([2]; drug concentration 10): 0.533; EC50 ([2]; Pseudomonas aeruginosa, DSM1117, regrowth delay of non-growing bacteria, 1:4 CA-MHB pH 7.4, 24 h treatment, OD600 8 h after dilution, read-out: EC50): 9990 nM; MIC (E. coli CFT073 (UPEC); Escherichia coli, LPM pH 5.5, read-out: MIC): 0.5 µM (≈ 0.275 µg/mL)
CC1COc2c(N3CCN(C)CC3)c(F)cc3c(=O)c(C(=O)O)cn1c23 (centres unmarked) [Ofloxacin] |  |  |  | 3677.86 RFU | 3135.58 RFU | 2241.58 RFU | 1713.97 RFU | 1616.14 RFU | 4797.17 RFU |  | 0.25 µM (≈ 0.0903 µg/mL) | 2 µM (≈ 0.723 µg/mL) | MIC (S. flexneri 5a M90T; Shigella flexneri, 5AM90T, read-out: MIC (μM) TSB): 0.125 µM (≈ 0.0452 µg/mL); IC50 ([1]; Shigella flexneri, TC7, 14 h): 113 nM; Fluorescence intensity (RFU), Mean, 0.25 x MIC ([1]; TC7 cells infected with GFP-expressing S. flexneri, 14 h treatment, 0.25 x MIC): 9690.38 RFU; Fluorescence intensity (RFU), Mean, 0.5 x MIC ([1]; TC7 cells infected with GFP-expressing S. flexneri, 14 h treatment, 0.5 x MIC): 8574.42 RFU
Plicamycin | >128 µM | 32 µM | 160 µM |  |  |  |  |  |  | 0.25 µM |  |  | 
